Measurements from US20040116464A1, “Aryl-ethanolamine derivatives as antiviral agents” (priority 2002, published 2004).
Like-named read-outs stand apart in the source and are kept apart here.

Columns and labels:
HCMV polymerase = target: T1, HCMV polymerase (Human cytomegalovirus, UniProt P08546); experiment: HCMV polymerase scintillation proximity assay; assay type: biochemical
T1 construct: made in house; host or cells: recombinant baculovirus-infected SF-9 cells
Method: The HCMV polymerase assay is performed using a scintillation proximity assay (SPA) as described in several references, such as N. D. Cook, et al., Pharmaceutical Manufacturing International, pages 49-53 (1992); K Takeuchi, Laboratory Practice, September issue (1992); U.S. Pat. No. 4,568,649 (1986); which are incorporated by reference herein. Reactions are performed in 96-well plates. The assay is conducted in 100 μl volume with 5.4 mM HEPES (pH 7.5), 11.7 mM KCl, 4.5 mM MgCl2, 0.36 mg/ml BSA, and 90 nM ^3H-dTTP. Assays are run with and without CHAPS, (3-[(3-Cholamidopropyl)-dimethylammonio]-1-propane-sulfonate) at a final concentration of 2 mM. HCMV polymerase is diluted in enzyme dilution buffer containing 50% glycerol, 250 mM NaCl, 10 mM HEPES (pH 7.5), 100 μg/ml BSA, and 0.01% sodium azide. The HCMV polymerase, which is expressed in recombinant baculovirus-infected SF-9 cells and purified according to literature procedures, is added at 10% (or 10 μl) of the final reaction volume, i.e., 100 μl. Compounds are diluted in 50% DMSO and 10 μl are added to each well. Control wells contain an equivalent concentration of DMSO. Unless noted otherwise, reactions are initiated via the addition of 6 nM biotinylated poly(dA)-oligo(dT) template/primer to reaction mixtures containing the enzyme, substrate, and compounds of interest. Plates are incubated in a 25° C. or 37° C. H2O bath and terminated via the addition of 40 μl/reaction of 0.5 M EDTA (pH 8) per well. Reactions are terminated within the time-frame during which substrate incorporation is linear and varied depending upon the enzyme and conditions used, i.e., 30 min. for HCMV polymerase. Ten (10) μl of streptavidin-SPA beads (20 mg/ml in PBS/10% glycerol) are added following termination of the reaction. Plates are incubated 10 min. at 37° C., then equilibrated to room temperature, and counted on a Packard Topcount. Linear regressions are performed and IC50's are calculated using computer software.
A modified version of the above HCMV polymerase assay is performed as described above, but with the following changes: Compounds are diluted in 100% DMSO until final dilution into assay buffer. In the previous assay, compounds are diluted in 50% DMSO. 4.5 mM Dithiothreitol (DTT) is added to the polymerase buffer.
All results are listed as Polymerase IC50 (μM) values. In Table 1, the term “n.d.” refers to activity data not determined.

HSV polymerase = HSV polymerase (Human herpesvirus 1, UniProt P04293); experiment: HSV polymerase assay (Table 1); assay type: biochemical
Chain of HSV polymerase (P04293 whole entry): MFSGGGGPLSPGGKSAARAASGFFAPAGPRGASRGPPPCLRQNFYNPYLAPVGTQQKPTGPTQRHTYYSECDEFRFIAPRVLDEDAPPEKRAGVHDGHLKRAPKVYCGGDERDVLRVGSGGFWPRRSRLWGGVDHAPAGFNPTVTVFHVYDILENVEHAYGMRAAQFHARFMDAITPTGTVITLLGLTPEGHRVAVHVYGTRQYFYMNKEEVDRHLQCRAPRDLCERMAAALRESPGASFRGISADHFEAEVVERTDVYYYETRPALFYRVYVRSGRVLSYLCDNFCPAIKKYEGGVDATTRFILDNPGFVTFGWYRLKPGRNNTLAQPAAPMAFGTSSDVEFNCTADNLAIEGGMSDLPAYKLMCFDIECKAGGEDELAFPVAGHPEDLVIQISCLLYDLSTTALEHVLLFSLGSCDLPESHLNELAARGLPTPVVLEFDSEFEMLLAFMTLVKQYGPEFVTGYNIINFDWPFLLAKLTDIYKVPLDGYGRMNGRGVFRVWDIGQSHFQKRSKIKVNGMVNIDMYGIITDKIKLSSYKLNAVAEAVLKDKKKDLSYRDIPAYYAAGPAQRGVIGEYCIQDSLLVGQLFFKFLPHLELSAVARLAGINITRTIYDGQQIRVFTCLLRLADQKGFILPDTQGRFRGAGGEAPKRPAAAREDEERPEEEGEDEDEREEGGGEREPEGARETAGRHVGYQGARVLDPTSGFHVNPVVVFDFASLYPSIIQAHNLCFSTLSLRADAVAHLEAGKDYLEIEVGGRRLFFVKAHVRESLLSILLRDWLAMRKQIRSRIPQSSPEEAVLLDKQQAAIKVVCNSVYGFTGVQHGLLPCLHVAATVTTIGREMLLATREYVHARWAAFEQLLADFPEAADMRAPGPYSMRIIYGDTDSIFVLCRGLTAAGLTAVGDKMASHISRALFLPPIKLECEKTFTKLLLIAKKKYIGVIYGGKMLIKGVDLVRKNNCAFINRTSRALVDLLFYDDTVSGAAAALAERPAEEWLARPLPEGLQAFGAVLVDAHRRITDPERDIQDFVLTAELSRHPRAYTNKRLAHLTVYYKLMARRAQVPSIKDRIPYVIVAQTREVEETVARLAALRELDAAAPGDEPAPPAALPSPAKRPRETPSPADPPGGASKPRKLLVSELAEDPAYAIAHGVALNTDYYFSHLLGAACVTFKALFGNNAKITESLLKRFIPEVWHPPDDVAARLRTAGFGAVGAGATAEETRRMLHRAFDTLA

VZV polymerase = VZV polymerase (Varicella-zoster virus, UniProt P09252); experiment: VZV polymerase assay (Table 1); assay type: biochemical
Chain of VZV polymerase (P09252 whole entry): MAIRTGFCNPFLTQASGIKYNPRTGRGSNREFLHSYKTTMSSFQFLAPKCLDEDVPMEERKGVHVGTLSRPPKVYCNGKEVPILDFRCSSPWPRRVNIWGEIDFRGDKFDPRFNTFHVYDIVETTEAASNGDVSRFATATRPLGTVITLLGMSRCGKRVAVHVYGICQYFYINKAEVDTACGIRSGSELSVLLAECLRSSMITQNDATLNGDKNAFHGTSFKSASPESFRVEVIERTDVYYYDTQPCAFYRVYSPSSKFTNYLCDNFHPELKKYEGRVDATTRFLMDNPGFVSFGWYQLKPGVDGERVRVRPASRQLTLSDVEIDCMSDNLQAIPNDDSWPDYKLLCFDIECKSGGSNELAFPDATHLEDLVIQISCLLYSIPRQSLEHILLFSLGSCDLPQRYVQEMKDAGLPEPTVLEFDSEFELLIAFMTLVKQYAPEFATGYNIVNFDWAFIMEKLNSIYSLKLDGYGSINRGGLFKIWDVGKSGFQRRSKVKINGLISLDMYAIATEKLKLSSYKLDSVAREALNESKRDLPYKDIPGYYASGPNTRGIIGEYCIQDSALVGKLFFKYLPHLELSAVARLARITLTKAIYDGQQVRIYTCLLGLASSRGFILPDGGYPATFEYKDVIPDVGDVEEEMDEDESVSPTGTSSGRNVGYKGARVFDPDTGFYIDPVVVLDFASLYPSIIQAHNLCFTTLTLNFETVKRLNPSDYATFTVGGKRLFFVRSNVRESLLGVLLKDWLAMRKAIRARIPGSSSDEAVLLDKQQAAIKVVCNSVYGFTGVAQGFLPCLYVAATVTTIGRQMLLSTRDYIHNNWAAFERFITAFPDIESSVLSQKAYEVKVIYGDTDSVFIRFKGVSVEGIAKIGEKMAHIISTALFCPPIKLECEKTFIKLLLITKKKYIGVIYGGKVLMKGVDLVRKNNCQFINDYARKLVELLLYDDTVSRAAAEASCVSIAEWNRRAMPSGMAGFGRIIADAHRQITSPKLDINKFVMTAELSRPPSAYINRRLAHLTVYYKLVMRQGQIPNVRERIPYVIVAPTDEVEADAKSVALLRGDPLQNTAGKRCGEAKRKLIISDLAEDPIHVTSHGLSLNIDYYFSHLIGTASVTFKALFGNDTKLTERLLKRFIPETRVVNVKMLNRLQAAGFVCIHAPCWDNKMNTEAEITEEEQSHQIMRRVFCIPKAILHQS

T1 sequence (P08546 whole entry): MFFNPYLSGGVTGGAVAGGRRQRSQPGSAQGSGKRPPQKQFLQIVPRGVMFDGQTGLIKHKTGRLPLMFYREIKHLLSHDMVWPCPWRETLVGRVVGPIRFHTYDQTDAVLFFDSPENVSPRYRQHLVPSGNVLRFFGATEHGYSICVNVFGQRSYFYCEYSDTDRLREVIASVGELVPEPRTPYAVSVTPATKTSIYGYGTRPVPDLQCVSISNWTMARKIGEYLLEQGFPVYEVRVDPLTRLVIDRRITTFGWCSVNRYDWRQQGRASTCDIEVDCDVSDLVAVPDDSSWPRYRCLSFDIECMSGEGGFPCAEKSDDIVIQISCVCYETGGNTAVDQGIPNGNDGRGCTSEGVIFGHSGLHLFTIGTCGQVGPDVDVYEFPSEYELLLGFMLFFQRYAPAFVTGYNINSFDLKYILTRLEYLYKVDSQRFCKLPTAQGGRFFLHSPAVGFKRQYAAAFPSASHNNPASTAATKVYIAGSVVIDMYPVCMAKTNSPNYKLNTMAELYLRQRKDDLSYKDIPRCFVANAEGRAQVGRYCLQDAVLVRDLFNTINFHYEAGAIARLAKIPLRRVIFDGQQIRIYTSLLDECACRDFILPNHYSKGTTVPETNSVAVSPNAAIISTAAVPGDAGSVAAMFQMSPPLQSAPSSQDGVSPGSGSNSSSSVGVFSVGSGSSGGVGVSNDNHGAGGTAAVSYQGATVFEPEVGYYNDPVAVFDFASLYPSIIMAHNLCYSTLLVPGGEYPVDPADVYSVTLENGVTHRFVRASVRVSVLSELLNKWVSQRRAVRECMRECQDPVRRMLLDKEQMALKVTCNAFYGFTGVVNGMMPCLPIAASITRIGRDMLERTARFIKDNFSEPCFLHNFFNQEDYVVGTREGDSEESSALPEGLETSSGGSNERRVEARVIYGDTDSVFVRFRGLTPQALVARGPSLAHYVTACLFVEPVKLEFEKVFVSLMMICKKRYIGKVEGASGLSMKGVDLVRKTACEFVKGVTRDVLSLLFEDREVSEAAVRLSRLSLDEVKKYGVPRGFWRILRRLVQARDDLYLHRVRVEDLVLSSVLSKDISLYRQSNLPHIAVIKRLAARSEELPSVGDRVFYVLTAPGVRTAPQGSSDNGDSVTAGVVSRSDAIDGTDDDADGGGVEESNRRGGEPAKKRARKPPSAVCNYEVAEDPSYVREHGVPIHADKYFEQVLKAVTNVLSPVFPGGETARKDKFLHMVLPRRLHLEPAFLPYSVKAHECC

Row | melting point | IC50 (HCMV polymerase; read-out: Polymerase IC50 HCMV) | IC50 (HSV polymerase) | IC50 (VZV polymerase) | SMILES | IC50 (HCMV polymerase)
1 | 105 to 106 °C | 320 nM |  |  | COCCn1cc(C(=O)NCc2ccc(Cl)cc2)c(=O)c2cc(CN(C)C[C@@H](O)c3ccccc3)sc21 [Example 9, N-(4-Chlorobenzyl)-2-((((2S)-2-hydroxy-2-phenylethyl)(methyl)amino)methyl)-7-(2-methoxyethyl)-4-oxo-4,7-dihydrothieno[2,3-b]pyridine-5-carboxamide] | 
2 | 181 to 183 °C | 620 nM | 1720 nM |  | CN(Cc1cc2c(=O)c(C(=O)NCc3ccc(Cl)cc3)cn(C)c2s1)C[C@@H](O)c1ccc([N+](=O)[O-])cc1 (single isomer, unassigned) [Example 14] | 
3 |  | 100 nM | 210 nM | 110 nM | CN(Cc1cc2c(=O)c(C(=O)NCc3ccc(Cl)cc3)cn(C)c2s1)C[C@@H](O)c1cccc(C#N)c1 (single isomer, unassigned) [Example 11] | 
4 |  | 210 nM | 620 nM | 230 nM | CN(Cc1cc2c(=O)c(C(=O)NCc3ccc(Cl)cc3)cn(C)c2s1)C[C@@H](O)c1ccc(N(C)C)cc1 (single isomer, unassigned) [Example 12] | 
5 |  | 340 nM |  |  | CN(Cc1cc2c(=O)c(C(=O)NCc3ccc(Cl)cc3)cn(C)c2s1)C[C@@H](O)c1ccc(C#N)cc1 (single isomer, unassigned) [Example 10] | 
6 | 45 to 48 °C | 620 nM |  |  | CCCn1cc(C(=O)NCc2ccc(Cl)cc2)c(=O)c2cc(CN(C)C[C@@H](O)c3ccccc3)sc21 [Example 8, N-(4-Chlorobenzyl)-2-((((2S)-2-hydroxy-2-phenylethyl)(methyl)amino)methyl)-4-oxo-7-propyl-4,7-dihydrothieno[2,3-b]pyridine-5-carboxamide] | 

Further lines, the compound ahead of its results:

Row | SMILES | melting point | IC50 (HCMV polymerase; read-out: Polymerase IC50 HCMV) | IC50 (HSV polymerase) | IC50 (VZV polymerase) | IC50 (HCMV polymerase)
7 | CCn1cc(C(=O)NCc2ccc(Cl)cc2)c(=O)c2cc(CN(C)C[C@@H](O)c3ccccc3)sc21 [Example 7, N-(4-Chlorobenzyl)-7-ethyl-2-((((2S)-2-hydroxy-2-phenylethyl)(methyl)amino)methyl)-4-oxo-4,7-dihydrothieno[2,3-b]pyridine-5-carboxamide] | 100 to 102 °C | 470 nM |  |  | 
8 | COc1cccc([C@H](O)CN(C)Cc2cc3c(=O)c(C(=O)NCc4ccc(Cl)cc4)cn(C)c3s2)c1 (single isomer, unassigned) [Example 6] |  | 60 nM | 160 nM | 90 nM | 
9 | CN(Cc1cc2c(=O)c(C(=O)NCc3ccc(Cl)cc3)cn(C)c2s1)C[C@@H](O)c1ccccc1 [Example 2, N-(4-Chlorobenzyl)-2-((((2S)-2-hydroxy-2-phenylethyl)(methyl)amino)methyl)-7-methyl-4-oxo-4,7-dihydrothieno[2,3-b]pyridine-5-carboxamide] | 162 to 164 °C |  | 400 nM | 200 nM | […]
10 | CN(Cc1cc2c(=O)c(C(=O)NCc3ccc(Cl)cc3)cn(CCO)c2s1)C[C@@H](O)c1ccccc1 [Example 5, N-(4-Chlorobenzyl)-7-(2-hydroxyethyl)-2-((((2S)-2-hydroxy-2-phenylethyl)-(methyl)amino)methyl)-4-oxo-4,7-dihydrothieno[2,3-b]pyridine-5-carboxamide] |  | 2020 nM |  |  | 
11 | CN(Cc1cc2c(=O)c(C(=O)NCc3ccc(Cl)cc3)cn(CC(O)CO)c2s1)C[C@@H](O)c1ccccc1 (stereo partly drawn) [Example 3, N-(4-Chlorobenzyl)-7-(2,3-dihydroxypropyl)-2-((((2S)-2-hydroxy-2-phenylethyl)-(methyl)amino)methyl)-4-oxo-4,7-dihydrothieno[2,3-b]pyridine-5-carboxamide] |  | 1770 nM |  |  | 
12 | CN(Cc1cc2c(=O)c(C(=O)NCc3ccc(Cl)cc3)cn(C)c2s1)C[C@@H](O)c1ccc(CO)cc1 (single isomer, unassigned) [Example 13] |  | 130 nM | 580 nM | 200 nM | 
13 | CN(Cc1cc2c(=O)c(C(=O)NCc3ccc(Cl)cc3)cn(C)c2s1)C[C@@H](O)c1ccc(O)cc1 [Example 1, N-(4-Chlorobenzyl)-2-((((2S)-2-hydroxy-2-(4-hydroxyphenyl)ethyl)(methyl)-amino)methyl)-7-methyl-4-oxo-4,7-dihydrothieno[2,3-b]pyridine-5-carboxamide] |  | 50 nM | 200 nM | 80 nM | 
14 | CN(Cc1cc2c(=O)c(C(=O)NCc3ccc(Cl)cc3)cn(CCCO)c2s1)C[C@@H](O)c1ccccc1 [Example 4, N-(4-chlorobenzyl)-2-((((2S)-2-hydroxy-2-phenylethyl)(methyl)amino)methyl)-7-(3-hydroxypropyl)-4-oxo-4,7-dihydrothieno[2,3-b]pyridine-5-carboxamide] |  |  |  |  | 1400 nM
